Measurements as given in ChEMBL document CHEMBL1149493, “Benzodiazepine calcitonin gene-related peptide (CGRP) receptor antagonists: optimization of the 4-substituted piperidine” (Bioorg Med Chem Lett, 2006).
Active and inactive are the calls of the source. No cut-off for these calls is given here.

Tests used:
[1] = molecular target: T1, Calcitonin gene-related peptide type 1 receptor (Homo sapiens, UniProt O60894+Q16602); assay: (§1) Displacement of [125I]CGRP from human recombinant CGRP receptor
T1 sequence (Q16602 whole entry, one chain of several): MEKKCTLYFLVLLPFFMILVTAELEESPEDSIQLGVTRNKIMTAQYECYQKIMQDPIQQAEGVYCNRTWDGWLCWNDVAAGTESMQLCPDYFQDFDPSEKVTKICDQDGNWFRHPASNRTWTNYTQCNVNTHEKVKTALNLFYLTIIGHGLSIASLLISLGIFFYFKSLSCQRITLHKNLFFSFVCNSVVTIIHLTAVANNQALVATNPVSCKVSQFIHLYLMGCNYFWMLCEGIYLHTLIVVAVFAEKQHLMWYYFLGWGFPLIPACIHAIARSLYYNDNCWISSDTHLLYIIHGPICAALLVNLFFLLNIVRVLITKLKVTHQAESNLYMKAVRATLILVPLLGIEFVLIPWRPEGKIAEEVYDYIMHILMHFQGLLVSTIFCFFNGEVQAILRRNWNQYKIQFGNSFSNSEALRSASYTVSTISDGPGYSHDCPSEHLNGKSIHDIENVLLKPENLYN

[2] = molecular target: T1, Calcitonin gene-related peptide type 1 receptor; assay: Activity at CGRP receptor assessed as inhibition of CGRP-stimulated cAMP production; type: functional
[3] = molecular target: Calcitonin gene-related peptide type 1 receptor (Homo sapiens) (UniProt Q16602); assay: as §1
Sequence of Calcitonin gene-related peptide type 1 receptor (Homo sapiens) (Q16602 whole entry): as the sequence (Q16602 whole entry, one chain of several) above

Row | Structure (SMILES) | Ki [1] | IC50 [2] | Activity [3]
1 | O=C(N[C@@H]1N=C(c2ccccc2)c2ccccc2N(CC(F)(F)F)C1=O)N1CCC(n2c(=O)[nH]c3cnccc32)CC1 | 685 nM | 1380 nM | 
2 | Cc1ccc(-c2cn(C3CCN(C(=O)N[C@@H]4N=C(c5ccccc5)c5ccccc5N(CC(F)(F)F)C4=O)CC3)c(=O)[nH]2)cc1 | 6.3 nM | 85 nM | 
3 | O=C(N[C@@H]1N=C(c2ccccc2)c2ccccc2N(CC(F)(F)F)C1=O)N1CCC(N2C(=O)NCc3ccccc32)CC1 |  |  | inactive
4 | O=C(N[C@@H]1N=C(c2ccccc2)c2ccccc2N(CC(F)(F)F)C1=O)N1CCC(n2cc(-c3ccccn3)[nH]c2=O)CC1 | 27 nM | 37 nM | 
5 | O=C(N[C@@H]1N=C(c2ccccc2)c2ccccc2N(CC(F)(F)F)C1=O)N1CCC(n2cc(CO)[nH]c2=O)CC1 | 20000 nM |  | 
6 | O=C(N[C@@H]1N=C(c2ccccc2)c2ccccc2N(CC(F)(F)F)C1=O)N1CCC(N2CCNC2=O)CC1 | 855 nM | 3100 nM | 
7 | CS(=O)(=O)c1ccc2c(c1)[nH]c(=O)n2C1CCN(C(=O)N[C@@H]2N=C(c3ccccc3)c3ccccc3N(CC(F)(F)F)C2=O)CC1 | 260 nM | 220 nM | 
8 | O=C(N[C@@H]1N=C(c2ccccc2)c2ccccc2N(CC(F)(F)F)C1=O)N1CCC(N2Cc3ncccc3NC2=O)CC1 | 965 nM | 1840 nM | 
9 | O=C(N[C@@H]1N=C(c2ccccc2)c2ccccc2N(CC(F)(F)F)C1=O)N1CCC(N2Cc3cnccc3NC2=O)CC1 | 320 nM | 627 nM | 
10 | O=C(N[C@@H]1N=C(c2ccccc2)c2ccccc2N(CC(F)(F)F)C1=O)N1CCC(n2cc(-c3ccc(OC(F)(F)F)cc3)[nH]c2=O)CC1 | 104 nM | 431 nM | 
11 | O=C(N[C@@H]1N=C(c2ccccc2)c2ccccc2N(CC(F)(F)F)C1=O)N1CCC(n2cc(-c3ccc(F)cc3)[nH]c2=O)CC1 | 11 nM | 107 nM | 
12 | O=C(N[C@@H]1N=C(c2ccccc2)c2ccccc2N(CC(F)(F)F)C1=O)N1CCC(n2nc(-c3ccccc3)[nH]c2=O)CC1 | 26 nM | 100 nM | 
13 | O=C(N[C@@H]1N=C(c2ccccc2)c2ccccc2N(CC(F)(F)F)C1=O)N1CCC(N2CC(c3cccnc3)NC2=O)CC1 (stereo partly specified) | 1050 nM |  | 
14 | O=C(N[C@@H]1N=C(c2ccccc2)c2ccccc2N(CC(F)(F)F)C1=O)N1CCC(n2c(=O)[nH]c3c4ccccc4ccc32)CC1 | 27 nM | 369 nM | 
15 | O=C(N[C@@H]1N=C(c2ccccc2)c2ccccc2N(CC(F)(F)F)C1=O)N1CCC(N2Cc3ccccc3NC2=O)CC1 | 48 nM | 34 nM | 
16 | O=C(N[C@@H]1N=C(c2ccccc2)c2ccccc2N(CC(F)(F)F)C1=O)N1CCC(N2Cc3ccncc3NC2=O)CC1 | 350 nM | 224 nM | 
17 | O=C(N[C@@H]1N=C(c2ccccc2)c2ccccc2N(CC(F)(F)F)C1=O)N1CCC(n2c(O)nc3cccc(Cl)c32)CC1 | 6400 nM |  | 
18 | O=C(N[C@@H]1N=C(c2ccccc2)c2ccccc2N(CC(F)(F)F)C1=O)N1CCC(n2c(=O)[nH]c3cccnc32)CC1 | 427 nM | 1140 nM | 
19 | O=C(N[C@@H]1N=C(c2ccccc2)c2ccccc2N(CC(F)(F)F)C1=O)N1CCC(n2c(=O)[nH]c3ncccc32)CC1 | 23 nM | 49 nM | 
20 | O=C(N[C@@H]1N=C(c2ccccc2)c2ccccc2N(CC(F)(F)F)C1=O)N1CCC(N2CC(c3ccccc3)NC2=O)CC1 (stereo partly specified) | 339 nM | 790 nM | 
21 | O=C(N[C@@H]1N=C(c2ccccc2)c2ccccc2N(CC(F)(F)F)C1=O)N1CCC(n2cc(-c3ccc(OC(F)F)cc3)nc2O)CC1 | 19 nM | 74 nM | 
22 | O=C(N[C@@H]1N=C(c2ccccc2)c2ccccc2N(CC(F)(F)F)C1=O)N1CCC(N2Cc3cccnc3NC2=O)CC1 | 295 nM | 616 nM | 
23 | O=C(N[C@@H]1N=C(c2ccccc2)c2ccccc2N(CC(F)(F)F)C1=O)N1CCC(n2c(O)nc3c(F)cccc32)CC1 | 375 nM | 373 nM | 
24 | O=C(N[C@@H]1N=C(c2ccccc2)c2ccccc2N(CC(F)(F)F)C1=O)N1CCC(n2c(=O)[nH]c3ccccc32)CC1 | 2250 nM |  | 
25 | O=C(N[C@@H]1N=C(c2ccccc2)c2ccccc2N(CC(F)(F)F)C1=O)N1CCC(n2c(=O)[nH]c3ccc(F)cc32)CC1 | 983 nM | 1400 nM | 
26 | O=C1CN(C2CCN(C(=O)N[C@@H]3N=C(c4ccccc4)c4ccccc4N(CC(F)(F)F)C3=O)CC2)C(=O)N1 | 29 nM | 100 nM | 

Row | Structure (SMILES) | Ki [1] | IC50 [2] | Activity [3]
27 | O=C(N[C@@H]1N=C(c2ccccc2)c2ccccc2N(CC(F)(F)F)C1=O)N1CCC(n2c(O)nc3c2ccc[n+]3[O-])CC1 | 1000 nM |  | 
28 | O=C(N[C@@H]1N=C(c2ccccc2)c2ccccc2N(CC(F)(F)F)C1=O)N1CCC(n2cc[nH]c2=O)CC1 | 583 nM | 672 nM | 
29 | O=C(N[C@@H]1N=C(c2ccccc2)c2ccccc2N(CC(F)(F)F)C1=O)N1CCC(n2cc(Cc3ccccc3)[nH]c2=O)CC1 | 1130 nM | 450 nM | 
30 | NC(=O)c1ccc2c(c1)[nH]c(=O)n2C1CCN(C(=O)N[C@@H]2N=C(c3ccccc3)c3ccccc3N(CC(F)(F)F)C2=O)CC1 | 1050 nM |  | 
31 | COc1ccc(-c2cn(C3CCN(C(=O)N[C@@H]4N=C(c5ccccc5)c5ccccc5N(CC(F)(F)F)C4=O)CC3)c(=O)[nH]2)cc1 | 205 nM | 193 nM | 
32 | Cc1cccc2nc(O)n(C3CCN(C(=O)N[C@@H]4N=C(c5ccccc5)c5ccccc5N(CC(F)(F)F)C4=O)CC3)c12 | 20000 nM |  | 
33 | COc1cccc(-c2cn(C3CCN(C(=O)N[C@@H]4N=C(c5ccccc5)c5ccccc5N(CC(F)(F)F)C4=O)CC3)c(O)n2)c1 | 1.1 nM | 5.1 nM | 
34 | O=C(O)c1ccc2c(c1)[nH]c(=O)n2C1CCN(C(=O)N[C@@H]2N=C(c3ccccc3)c3ccccc3N(CC(F)(F)F)C2=O)CC1 | 810 nM | 715 nM | 
35 | O=C(N[C@@H]1N=C(c2ccccc2)c2ccccc2N(CC(F)(F)F)C1=O)N1CCC(N2CC(c3ccccn3)NC2=O)CC1 (stereo partly specified) | 2000 nM |  | 
36 | O=C(N[C@@H]1N=C(c2ccccc2)c2ccccc2N(CC(F)(F)F)C1=O)N1CCC(n2c(O)nc3cc(C(F)(F)F)ccc32)CC1 | 3800 nM |  | 
37 | O=C(N[C@@H]1N=C(c2ccccc2)c2ccccc2N(CC(F)(F)F)C1=O)N1CCC(n2c(=O)[nH]c3ccncc32)CC1 | 853 nM | 1400 nM | 
38 | CC(C)c1cn(C2CCN(C(=O)N[C@@H]3N=C(c4ccccc4)c4ccccc4N(CC(F)(F)F)C3=O)CC2)c(=O)[nH]1 | 5340 nM |  | 
39 | O=C(N[C@@H]1N=C(c2ccccc2)c2ccccc2N(CC(F)(F)F)C1=O)N1CCC(n2c(=O)[nH]c3nccnc32)CC1 | 156 nM | 286 nM | 
40 | O=C(N[C@@H]1N=C(c2ccccc2)c2ccccc2N(CC(F)(F)F)C1=O)N1CCC(n2c(O)nc3c(Cl)cccc32)CC1 | 143 nM | 446 nM | 
41 | Cc1cccc2c1nc(O)n2C1CCN(C(=O)N[C@@H]2N=C(c3ccccc3)c3ccccc3N(CC(F)(F)F)C2=O)CC1 | 6900 nM |  | 
42 | O=C(N[C@@H]1N=C(c2ccccc2)c2ccccc2N(CC(F)(F)F)C1=O)N1CCC(N2CC(c3ccncc3)NC2=O)CC1 (stereo partly specified) | 720 nM | 804 nM | 
43 | O=C(N[C@@H]1N=C(c2ccccc2)c2ccccc2N(CC(F)(F)F)C1=O)N1CCC(n2c(O)nc3cc(F)ccc32)CC1 | 2800 nM |  | 
44 | O=C(N[C@@H]1N=C(c2ccccc2)c2ccccc2N(CC(F)(F)F)C1=O)N1CCC(n2cc(-c3ccccc3)[nH]c2=O)CC1 | 11 nM | 14 nM | 
45 | O=C(O)c1cn(C2CCN(C(=O)N[C@@H]3N=C(c4ccccc4)c4ccccc4N(CC(F)(F)F)C3=O)CC2)c(=O)[nH]1 | 2900 nM |  | 
46 | Cc1ccc2c(c1)[nH]c(=O)n2C1CCN(C(=O)N[C@@H]2N=C(c3ccccc3)c3ccccc3N(CC(F)(F)F)C2=O)CC1 | 6100 nM |  | 
47 | COC(=O)c1cn(C2CCN(C(=O)N[C@@H]3N=C(c4ccccc4)c4ccccc4N(CC(F)(F)F)C3=O)CC2)c(=O)[nH]1 | 110 nM | 156 nM | 
48 | N#Cc1cn(C2CCN(C(=O)N[C@@H]3N=C(c4ccccc4)c4ccccc4N(CC(F)(F)F)C3=O)CC2)c(=O)[nH]1 | 575 nM | 990 nM | 
49 | O=C(N[C@@H]1N=C(c2ccccc2)c2ccccc2N(CC(F)(F)F)C1=O)N1CCC(n2c(=O)[nH]c3ncncc32)CC1 | 51 nM | 430 nM | 
50 | O=C(N[C@@H]1N=C(c2ccccc2)c2ccccc2N(CC(F)(F)F)C1=O)N1CCC(n2c(O)nc3cc(Cl)ccc32)CC1 | > 10000 nM |  | 
51 | O=C(N[C@@H]1N=C(c2ccccc2)c2ccccc2N(CC(F)(F)F)C1=O)N1CCC(n2cc(-c3cccc(F)c3)nc2O)CC1 | 11 nM | 46 nM | 
